From patent US8952024B2, “Herbicidal pyrimidone derivatives” (E I du Pont de Nemours and Company, priority 2009, dated 2015)

Key:
Type in all cases: in vivo
[1] = tested on: canarygrass (Phalaris minor); assay: Test B postemergence plant response; settings: for Canarygrass plant response rating (0 to 100 scale): 62 g ai/ha, 0 is no effect, 13 to 15 days
Procedure, shortened: (§1)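 Visual ratings from 0 (no effect) to 100 (complete control), made against controls 13–15 days after treatment, kept in a greenhouse. Compounds were applied postemergence to potted plants at the 1- to 4-leaf stage (2–18 cm).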

[2] = tested on: winter barley (Hordeum vulgare); assay: Test B postemergence plant response; settings: for Barley plant response rating (0 to 100 scale): 62 g ai/ha, 0 is no effect, 13 to 15 days
Procedure, shortened: as §1

[3] = tested on: windgrass (Apera spica-venti); assay: Test B postemergence plant response; settings: for Windgrass plant response rating (0 to 100 scale): 62 g ai/ha, 0 is no effect, 13 to 15 days
Procedure, shortened: as §1

[4] = tested on: chickweed (Stellaria media); assay: Test B postemergence plant response; settings: for Chickweed plant response rating (0 to 100 scale): 62 g ai/ha, 0 is no effect, 13 to 15 days
Procedure, shortened: as §1

[5] = tested on: bermudagrass (Cynodon dactylon); assay: Test B pre-/postemergence plant response; settings: for Bermudagrass plant response rating (0 to 100 scale): 62 g ai/ha, 0 is no effect, 13 to 15 days
Procedure, shortened: (§2)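 Visual injury, 0–100 scale (100 = complete control), rated against controls after 13 to 15 days in greenhouse. Pre-emergence: seeds in loam/sand soil, treated at planting. Post-emergence: 1- to 4-leaf plants (2 to 18 cm) in peat/vermiculite medium. Compounds formulated in non-phytotoxic solvent with surfactant.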

[6] = tested on: morningglory (Ipomoea coccinea); assay: Test B pre-/postemergence plant response; settings: for Morningglory plant response rating (0 to 100 scale): 62 g ai/ha, 0 is no effect, 13 to 15 days
Procedure, shortened: as §2

[7] = tested on: umbrella sedge (Cyperus difformis); assay: Test B flooded paddy test; settings: for Plant response rating, Flood, Sedge, Umbrella: 250 g ai/ha, flooded paddy test, visual rating on 0 to 100 scale (0 no effect, 100 complete control) after 13 to 15 days; for Plant response rating, Sedge, Umbrella: Flood (flooded paddy test), 13 to 15 days; for Sedge, Umbrella plant response rating: Flood, 31 g ai/ha, scale 0 to 100 (0 no effect, 100 complete control)
Procedure, shortened: (§3)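 Ratings are visual, 0–100 (100 = complete control), taken versus untreated controls 13 to 15 days after treatment in the greenhouse. Compound went straight into paddy water held 3 cm above soil, applied to 2-leaf-stage plants of four species.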

rice (Oryza sativa) = assay: Test B flooded paddy test; settings: for Plant response rating, Flood, Rice: 250 g ai/ha, flooded paddy test, visual rating on 0 to 100 scale (0 no effect, 100 complete control) after 13 to 15 days; for Plant response rating, Rice: Flood (flooded paddy test), 13 to 15 days; for Rice plant response rating: Flood, 31 g ai/ha, scale 0 to 100 (0 no effect, 100 complete control)
Procedure, shortened: as §3

[8] = tested on: barnyardgrass (Echinochloa crus-galli); assay: Test B flooded paddy test; settings: for Plant response rating, Flood, Barnyardgrass: 250 g ai/ha, flooded paddy test, visual rating on 0 to 100 scale (0 no effect, 100 complete control) after 13 to 15 days; for Plant response rating, Barnyardgrass: Flood (flooded paddy test), 13 to 15 days; for Barnyardgrass plant response rating: Flood, 31 g ai/ha, scale 0 to 100 (0 no effect, 100 complete control)
Procedure, shortened: as §3

[9] = tested on: ducksalad (Heteranthera limosa); assay: Test B flooded paddy test; settings: for Plant response rating, Flood, Ducksalad: 250 g ai/ha, flooded paddy test, visual rating on 0 to 100 scale (0 no effect, 100 complete control) after 13 to 15 days; for Plant response rating, Ducksalad: Flood (flooded paddy test), 13 to 15 days; for Ducksalad plant response rating: Flood, 31 g ai/ha, scale 0 to 100 (0 no effect, 100 complete control)
Procedure, shortened: as §3

[10] = 31 g ai/ha, postemergence, scale 0 to 100, 0 is no effect, 100 is complete control
[11] = postemergence, 100 is complete control
[12] = Postemergence, 125 g ai/ha, scale 0 to 100 (0 no effect, 100 complete control)
[13] = Postemergence, 250 g ai/ha, scale 0 to 100 (0 no effect, 100 complete control)
[14] = 62 g ai/ha, scale of 0 to 100 where 0 is no effect and 100 is complete control
[15] = 125 g ai/ha, scale 0 to 100, 0 is no effect, 100 is complete control
[16] = Postemergence, 125 g ai/ha, visual rating after 13 to 15 days, scale 0 (no effect) to 100 (complete control)

| SMILES | Plant response rating, Canarygrass [1, 10] | Canarygrass plant response rating (0 to 100 scale) [1, 11] | Plant response rating, Canarygrass [1, 13] | Plant response rating, Barley [2, 10] | Barley plant response rating (0 to 100 scale) [2, 11] | Plant response rating, Barley [2, 13] | Windgrass plant response rating (0 to 100 scale) [3, 11] | Plant response rating, Chickweed [4, 10] | Chickweed plant response rating (0 to 100 scale) [4, 11] | Plant response rating, Chickweed [4, 13] | Plant response rating, Bermudagrass [5, 10] | Bermudagrass plant response rating (0 to 100 scale) [5, 11] | Plant response rating, Bermudagrass [5, 13] | Plant response rating, Morningglory [6, 10] | Morningglory plant response rating (0 to 100 scale) [6, 11] | Plant response rating, Morningglory [6, 13] | Plant response rating, Flood, Sedge, Umbrella [7] | Plant response rating, Sedge, Umbrella [7, 14] | Plant response rating, Sedge, Umbrella [7, 15] | Sedge, Umbrella plant response rating [7] | also measured |
| --- | --- | --- | --- | --- | --- | --- | --- | --- | --- | --- | --- | --- | --- | --- | --- | --- | --- | --- | --- | --- | --- |
| O=C1CCCC(O)=C1C(=O)c1cnc(-c2cccs2)n(CC2CCCO2)c1=O (stereo not shown) [Compound 109] | 0 | 0 | 45 | 0 | 0 | 5 | 40 | 90 | 98 | 100 | 70 | 85 | 95 | 70 | 98 | 100 | 80 | 60 | 75 | 50 | Plant response rating, Canarygrass [1, 12]: 30; Plant response rating, Barley [2, 12]: 5; Plant response rating, Windgrass [3, 12]: 60; Plant response rating, Chickweed [4, 12]: 98; Plant response rating, Bermudagrass [5, 12]: 90; Plant response rating, Morningglory [6, 12]: 100; Plant response rating, Flood, Rice (rice (Oryza sativa)): 25; Plant response rating, Rice (rice (Oryza sativa); [14]): 0; Plant response rating, Rice (rice (Oryza sativa); [15]): 20; Rice plant response rating (rice (Oryza sativa)): 0; Plant response rating, Flood, Barnyardgrass [8]: 20; Plant response rating, Barnyardgrass [8, 14]: 0; Plant response rating, Barnyardgrass [8, 15]: 20; Barnyardgrass plant response rating [8]: 0; Plant response rating, Flood, Ducksalad [9]: 100; Plant response rating, Ducksalad [9, 14]: 60; Plant response rating, Ducksalad [9, 15]: 65; Ducksalad plant response rating [9]: 50 |
| CCCn1c(-c2ccsc2)ncc(C(=O)C2=C(O)CCCC2=O)c1=O [Compound 93] | 0 | 0 | 10 | 0 | 0 | 5 | 10 | 80 | 80 | 98 | 60 | 75 | 85 | 70 | 80 | 100 | 90 | 75 | 80 | 70 | Plant response rating, Canarygrass [1, 16]: 5; Plant response rating, Barley [2, 16]: 5; Plant response rating, Windgrass [3, 10]: 5; Plant response rating, Windgrass [3, 13]: 55; Plant response rating, Chickweed [4, 16]: 95; Plant response rating, Bermudagrass [5, 16]: 85; Plant response rating, Flood, Rice (rice (Oryza sativa)): 45; Plant response rating, Rice (rice (Oryza sativa); [14]): 15; Plant response rating, Rice (rice (Oryza sativa); [15]): 20; Rice plant response rating (rice (Oryza sativa)): 0; Plant response rating, Flood, Barnyardgrass [8]: 85; Plant response rating, Barnyardgrass [8, 14]: 60; Plant response rating, Barnyardgrass [8, 15]: 75; Barnyardgrass plant response rating [8]: 30; Plant response rating, Flood, Ducksalad [9]: 80; Plant response rating, Ducksalad [9, 14]: 55; Plant response rating, Ducksalad [9, 15]: 80; Ducksalad plant response rating [9]: 40 |
| O=C1CCCC(O)=C1C(=O)c1cnc(-c2ccsc2)n(CC2CCCO2)c1=O (stereo not shown) [Compound 98] | 5 | 20 | 50 | 0 | 5 | 15 | 20 | 80 | 80 | 100 | 75 | 80 | 98 | 70 | 85 | 100 | 75 | 65 | 75 | 40 | Plant response rating, Canarygrass [1, 12]: 35; Plant response rating, Barley [2, 12]: 10; Plant response rating, Windgrass [3, 12]: 50; Plant response rating, Windgrass [3, 13]: 70; Plant response rating, Chickweed [4, 12]: 98; Plant response rating, Bermudagrass [5, 12]: 85; Plant response rating, Morningglory [6, 12]: 100; Plant response rating, Flood, Rice (rice (Oryza sativa)): 40; Plant response rating, Rice (rice (Oryza sativa); [14]): 0; Plant response rating, Rice (rice (Oryza sativa); [15]): 0; Rice plant response rating (rice (Oryza sativa)): 0; Plant response rating, Flood, Barnyardgrass [8]: 50; Plant response rating, Barnyardgrass [8, 14]: 30; Plant response rating, Barnyardgrass [8, 15]: 30; Barnyardgrass plant response rating [8]: 0; Plant response rating, Flood, Ducksalad [9]: 0; Plant response rating, Ducksalad [9, 14]: 0; Plant response rating, Ducksalad [9, 15]: 0; Ducksalad plant response rating [9]: 0 |
